Key:
[1] = system: O^6-methylguanine-DNA-methyltransferase (MGMT) expression; details: combined with temozolomide (TMZ); cited from earlier work
64SP stem like cells = details: combined with radiation; cited from earlier work
glioma = details: cited from earlier work
[2] = Clinical adverse events observed with troriluzole; details: human, in vivo
From the text: In general, mild liver enzymes elevations attributed to troriluzole occur due to enzyme induction and are likely to resolve spontaneously within 12 weeks without any changes in the dose of troriluzole. However, the investigator should evaluate the subject, as appropriate.

| Compound | effects of TMZ [1] | sensitivity to radiation (64SP stem like cells) | concentration of CD4+ T cells in TME (glioma; IF data, after troriluzole treatment) | proliferation of tumor-infiltrating T cells (glioma; troriluzole treatment) | survival (glioma; troriluzole treatment) | survival and T regulatory cells in combination with anti-PD-1 (glioma; with anti-PD-1 immunotherapy, glioma tumor microenvironment (TME)) | most commonly observed adverse events [2] |
| --- | --- | --- | --- | --- | --- | --- | --- |
| Nc1nc2ccc(OC(F)(F)F)cc2s1 [Riluzole, riluzole] | enhances the effects of TMZ via suppression of O^6-methylguanine-DNA-methyltransferase (MGMT) expression | enhances sensitivity to radiation | – | – | – | – | – |
| CN(CC(=O)Nc1nc2ccc(OC(F)(F)F)cc2s1)C(=O)CNC(=O)CN [Troriluzole, troriluzole] | – | – | increased concentration of CD4+ T cells in TME | promoted proliferation of tumor-infiltrating T cells | induced a survival benefit | synergized with anti-PD-1 immunotherapy to further improve survival and reduce T regulatory cells | Mild increases in liver enzymes |

Source: patent publication US20250375427A1 (Biohaven Therapeutics Ltd., priority 2022, published 2025)
